Consider 75 molecules from PubChem BioAssay AID179 (DTP/NCI, 2004).

The test concerns CEM cells HIV-1 protection, formazan growth assay. Description: NCI AIDS Antiviral Assay. Particulars: for IC50: measured here: growth of uninfected CEM cells. In a few lines: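 Protection of CEM cells against HIV-1 was scored from cell growth (soluble formazan) across five concentrations, with parallel uninfected cells. Lack of protection may reflect toxicity.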

“And” between values parts separate entries of the source, which are not always exact repeats. Equal values may be shown once. The source made the active and inactive calls.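 How the source made its calls: active means compounds giving half or more protection of infected cells from virus-caused growth loss, again on retest; inactive means the rest.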

By EC50 is commonly meant the midpoint of the concentration-response curve. For orientation: IC50 means the concentration that inhibits the measured activity by half. A high value points to a need for much substance. On to `O=S(=O)(O)c1ccc(Nc2ccnc3cc(Cl)ccc23)cc1`, for which the EC50 was more than 200 µM and the IC50 is more than 200 µM.

For the molecule `CCCCC1Sc2cc(OC)cc(N)c2NC1=O` (stereo unspecified), the EC50 was more than 200 µM and the half-maximal inhibitory concentration (IC50) amounted to 158 µM.

Turning to `c1ccc([P+](CCOCC[P+](c2ccccc2)(c2ccccc2)c2ccccc2)(c2ccccc2)c2ccccc2)cc1`, the EC50 was more than 200 µM and the IC50 is 49 µM.

Turning to `Cc1[nH]c(N)c(C#N)c1Cc1ccccc1`, the EC50 is more than 200 µM and the concentration for half-maximal inhibition (IC50) is more than 200 µM.

Regarding `Cc1ccc(NC(=S)/N=C/c2c(O)[nH]c(=O)[nH]c2=O)c(C)c1`, the EC50 was more than 200 µM and the IC50 was determined as 151 µM.

Regarding `Cc1nc(N)nc(N)c1N1CCN(c2ccc(S(=O)(=O)N(Cc3ccccc3)Cc3ccccc3)cc2)CC1`, the EC50 was 0.0501 µM and the IC50 worked out at 0.132 µM.

On to `NC(=S)NNC(=S)NC(=O)c1ccco1`, for which the EC50 was more than 200 µM and the concentration for half-maximal inhibition (IC50) is more than 200 µM.

With `Cc1ccc(/C=C2\Cc3cc(C)c(C)cc3C2=O)c(C(=O)O)c1`, the EC50 is more than 200 µM and the half-maximal inhibitory concentration (IC50) worked out at 38.9 µM.

Consider `CCNc1cc2c3c(c1)CCCN3CCC2`, for which the EC50 is more than 200 µM and the half-maximal inhibitory concentration (IC50) turned out to be 8.51 µM.

Regarding `CC1=CN2C(c3ccc(Cl)cc3)=NON(c3ccc(C)cn3)C2C=C1` (stereo unspecified), the EC50 is more than 10.2 µM and the IC50 was more than 10.2 µM.

As for `CN(C)CCC=C1c2ccccc2C=Cc2ccccc21`, the EC50 was more than 200 µM; the IC50 is 33.9 µM and 28.8 µM and 37.2 µM.

Consider `CCOC1(OCC)N=C(N)C2(C#N)C3(C(=O)N(C(C)C)N=C3C)C12C#N` (stereo unspecified), for which the EC50 was more than 200 µM and the IC50 was 166 µM.

Regarding `Cc1nc(-c2cc3cc([N+](=O)[O-])ccc3oc2=O)cs1`, the EC50 is more than 200 µM and the IC50 worked out at 74.1 µM.

For `O=S(=O)(Nc1nc2ccccc2n1S(=O)(=O)c1ccccc1)c1ccccc1`, the EC50 was 81.3 µM and the half-maximal inhibitory concentration (IC50) came to 97.7 µM.

Turning to `CC(=O)C1CC2(C(=O)C1=O)c1ccccc1-c1ccccc12` (stereo unspecified), the outcome was inactive.

Regarding `CC1CN2CCc3c([nH]c4ccccc34)C2C[C@@H]1CC(=O)N(C)C` (stereo partly specified), the EC50 is more than 191 µM and the 50% inhibitory concentration (IC50) is more than 191 µM.

As for `COC(=O)CCCC=C(c1cc(Cl)c(OC)c(C(=O)OC)c1)c1cc(Cl)c(OC)c(C(=O)OC)c1`, the EC50 is 1.62 µM and the concentration for half-maximal inhibition (IC50) turned out to be 21.4 µM.

For `COc1cc2ccnc([C@@H](OC(=O)c3ccccc3)c3ccc(OC)c(OC)c3OC)c2cc1OC`, the outcome was inactive.

Consider `c1ccc(C2=NOCC3(c4ccccc4)OC23)cc1` (stereo unspecified), for which the EC50 was more than 31.6 µM and the IC50 was found to be 12 µM.

Consider `Oc1ccc2ccccc2c1CN1CCOCC1`, for which the concentration for a half-maximal effect (EC50) is 132 µM and the IC50 was 186 µM.

As for `Cc1ncc(CO)c(CO)c1OCC(O)CN1CCN(c2ccc(F)cc2)CC1` (stereo unspecified), the EC50 was more than 200 µM and the 50% inhibitory concentration (IC50) is 97.7 µM.

In the case of `CSc1nc2c(nc(C)c(=O)n2C2OCC(OC(C)=O)C(OC(C)=O)C2OC(C)=O)c(=O)[nH]1` (stereo unspecified), the EC50 was more than 513 µM and the half-maximal inhibitory concentration (IC50) is more than 513 µM.

Consider `CCOC(=O)c1cc2sc(NC(=O)c3cccs3)nc2o1`, for which the result was inactive.

On to `O=C1/C(=C\c2ccc(O)cc2)CCC/C1=C/c1ccc(Cl)c(Cl)c1`, for which the EC50 is more than 200 µM and the half-inhibitory concentration (IC50) was found to be 1.12 µM.

On to `COC(=O)CCc1ccc2c(c1)CC1(Cc3ccccc3C1)C2`, for which the EC50 was more than 200 µM and the IC50 is 107 µM.

As for `O=c1[nH]c2cc([N+](=O)[O-])ccc2nc1/C(=N/Nc1ccccc1)C(O)c1ccccc1Cl` (stereo unspecified), the EC50 was more than 363 µM and the half-maximal inhibitory concentration (IC50) was 355 µM.

On to `CC(C)CC(NC(=O)OCC[P+](c1ccccc1)(c1ccccc1)c1ccccc1)C(=O)O` (stereo unspecified), for which the EC50 is more than 200 µM and the half-inhibitory concentration (IC50) came to 9.12 µM.

With `COc1cc(C)cc2c1c(=O)c1ccccc1n2C`, the EC50 was more than 200 µM and the half-maximal inhibitory concentration (IC50) was found to be 38.9 µM.

Turning to `Clc1ccc(C2=NN(c3ccccc3)C3c4cc(Br)ccc4OCC23)cc1` (stereo unspecified), the EC50 was more than 11.7 µM and the concentration for half-maximal inhibition (IC50) was more than 11.7 µM.

On to `N#Cc1c(C[n+]2ccccc2)c2ccccc2oc1=O`, for which the EC50 is 617 µM and the IC50 was 646 µM.

With `CC(C)=CCC/C(C)=C/COC(C)(C)C1=CCC(C)CC1` (stereo unspecified) (tested in a mixture with another compound), the EC50 was more than 200 µM and the 50% inhibitory concentration (IC50) was more than 200 µM.

With `N#C/C=C\c1ccc(-c2cc(C(F)(F)F)cc(C(F)(F)F)c2)o1`, the EC50 was more than 200 µM and the concentration for half-maximal inhibition (IC50) is 46.8 µM.

For `COC(=O)NC(=O)c1cn(C2OC(CO)C(O)C2O)c(=O)[nH]c1=O` (stereo unspecified), the EC50 is more than 724 µM and the half-inhibitory concentration (IC50) is more than 724 µM.

With `COc1ccc(/C=N/NC(=O)c2sc(=S)n(-c3ccccc3)c2N)cc1`, the EC50 was more than 9.77 µM and the half-maximal inhibitory concentration (IC50) was more than 9.77 µM.

Take `CCCCCCc1ccc(O)cc1O`: the EC50 was more than 200 µM and the IC50 worked out at 74.1 µM.

With `O=S(=O)(F)c1ccc(C[P+](c2ccccc2)(c2ccccc2)c2ccccc2)cc1Cl`, the EC50 was more than 200 µM and the IC50 came out at 97.7 µM.

Regarding `c1ccc2c(NCCCCCCCCNc3c4ccccc4nc4ccccc34)c3ccccc3nc2c1`, the result was inactive.

As for `O=S1(=O)CS(=O)(=O)CS(=O)(=O)C1`, the EC50 was more than 200 µM and the IC50 stood at 89.1 µM.

With `COC(=O)c1sc2c(Cl)c(Cl)sc2c1Cl`, the EC50 was more than 50.1 µM and the concentration for half-maximal inhibition (IC50) was more than 50.1 µM.

Regarding `CC(C)OP(=O)(OC(C)C)C(Nc1cccc(C(F)(F)F)c1)c1ccccc1` (stereo unspecified), the EC50 is more than 200 µM and the half-inhibitory concentration (IC50) amounted to 33.9 µM.

As for `O=C1C2CN(Cc3ccccc3)CC1CN(CC1CC1)C2`, the EC50 was more than 240 µM and the IC50 is more than 240 µM.

As for `CCC(C)NC(=S)N/N=C(\C)c1ccccn1` (stereo unspecified), the EC50 was more than 0.2 µM and the half-maximal inhibitory concentration (IC50) amounted to 0.0158 µM.

`CC(C)c1cccc(C(C)C)c1NC(=S)Nc1ccccc1`: the outcome was inactive.

In the case of `O=C(Cc1nc2ccccc2s1)C(=O)Nc1ccccc1C(F)(F)F`, the EC50 is more than 70.8 µM and the IC50 was more than 70.8 µM.

As for `Clc1ccc(CSc2ccc3nncc(SCc4ccc(Cl)cc4)c3c2)cc1`, the EC50 is more than 60.3 µM and the concentration for half-maximal inhibition (IC50) was more than 60.3 µM.

Take `O=C(CSc1nnc(-c2ccc(N=Cc3ccc(Cl)cc3)cc2)o1)Nc1ccccc1[N+](=O)[O-]`: the EC50 is more than 20.4 µM and the IC50 is more than 20.4 µM.

Turning to `Cc1ccc(N=C2S/C(=C3/CCC=C3N3CCOCC3)N(c3ccc(Cl)cc3)C2=Nc2ccc(C)cc2)cc1`, the EC50 is more than 200 µM and the concentration for half-maximal inhibition (IC50) was more than 200 µM.

In the case of `Cc1cc2ncc3c(=O)n(NS(=O)(=O)c4ccc(N)cc4)ccc3n2n1`, the EC50 is more than 200 µM and the half-inhibitory concentration (IC50) was more than 200 µM.

As to `O=C1CC(c2ccoc2)NC(=O)N1CCCl` (stereo unspecified), the EC50 was more than 200 µM and the concentration for half-maximal inhibition (IC50) is more than 200 µM.

`[CH3][Sn]([CH3])([CH3])[c]1cccc2ccccc12`: the result was inactive.

Take `CCOC(=O)C1C(=O)CC(C)(O)C(C(=O)OCC)C1c1ccc(OC)cc1` (stereo unspecified): the EC50 is more than 200 µM and the IC50 is more than 200 µM.

In the case of `O=c1cc(NNc2cccc(F)c2)[nH]c(=S)[nH]1`, the EC50 was more than 200 µM and the IC50 amounted to 87.1 µM.

In the case of `Cn1c(=O)c2c(nc3[nH]c(=O)c(Br)cn32)n(C)c1=O`, the EC50 is more than 100 µM and the half-inhibitory concentration (IC50) is 20.4 µM.

With `O=C(Nc1ccc([N+](=O)[O-])cn1)Nc1ccccc1F`, the EC50 was more than 200 µM and the IC50 was more than 200 µM.

Take `NCCCNCCCCN1CCOC1=O`: the EC50 was more than 200 µM and the IC50 is 50.1 µM.

In the case of `C=CCC(O)C1=CC(=O)c2c(O)ccc(O)c2C1=O` (stereo unspecified), the outcome was inactive.

With `CC(C)CC(C#CCCOC(=O)c1ccccc1)OC(=O)c1ccccc1` (stereo unspecified), the EC50 was more than 200 µM and the IC50 is 95.5 µM.

For `Cc1ccccc1NC(=O)NC(Oc1ccccc1)(C(F)(F)F)C(F)(F)F`, the EC50 was more than 200 µM and the IC50 is more than 200 µM.

On to `Nc1nn2cc3c(nc2c1N=Nc1ccc(Cl)cc1)CCCC3`, for which the outcome was inactive.

On to `CC(=O)Nc1ccc2[nH]c(C(=O)N3CC(CCl)c4c3cc(N)c3ccccc43)cc2c1` (stereo unspecified), for which the EC50 is more than 0.2 µM and the half-inhibitory concentration (IC50) was determined as 0.00933 µM.

For `Cc1ccc2c(c1)sc1nnc(Cl)n12`, the EC50 was more than 200 µM and the IC50 is more than 200 µM.

For the molecule `CC12CC(=O)CC1(C)CC(=O)C2` (stereo unspecified), the EC50 is more than 537 µM and the IC50 was more than 537 µM.

Take `CC(Cn1c(=O)oc2ccccc21)N(C)C` (stereo unspecified): the EC50 is more than 200 µM and the IC50 was more than 200 µM.

Regarding `CCOC(=O)CCC(NC(=O)c1ccc(Oc2nc3ccc(C(F)(F)F)cc3nc2-c2ccccc2)cc1)C(=O)OCC` (stereo unspecified), the EC50 is more than 200 µM and the 50% inhibitory concentration (IC50) amounted to 195 µM.

Turning to `COc1ccccc1C1(C)SCc2nc3ccccc3n21` (stereo unspecified), the EC50 was more than 87.1 µM and the 50% inhibitory concentration (IC50) amounted to 79.4 µM.

On to `O=C1O/C(=C(/Cl)c2c3ccccc3cc3ccccc23)c2ccccc21`, for which the EC50 is more than 200 µM and the IC50 is 10.2 µM.

As to `O=C1CCCCCCCCCCC1CN1CCOCC1` (stereo unspecified), the EC50 was more than 72.4 µM and the half-inhibitory concentration (IC50) was more than 72.4 µM.

Consider `C/C(=C\CNc1ncnc2c1ncn2C1CCCCO1)COP(=O)(O)O` (stereo unspecified), for which the result was inactive.

Turning to `C=CCN(CCNS(=O)(=O)c1ccc(C)cc1)S(=O)(=O)c1ccc(C)cc1`, the EC50 is more than 33.1 µM and the IC50 was more than 33.1 µM.

Turning to `O=C1OCc2c1[nH]c(=O)[nH]c2=O`, the EC50 is more than 200 µM and the IC50 was more than 200 µM.

As for `O=c1ccc(=O)n(-c2ccc(Br)cc2)[nH]1`, the EC50 was more than 26.9 µM and the half-inhibitory concentration (IC50) is more than 26.9 µM.

Turning to `Cc1ccc(NC(=O)c2cnccn2)c(=O)o1`, the EC50 was more than 200 µM and the half-inhibitory concentration (IC50) is more than 200 µM.

In the case of `Cc1nc2ccc(NC3OC(CO)C(O)C(O)C3O)cc2c(=O)n1-c1ccccc1` (stereo unspecified), the EC50 is more than 200 µM and the half-inhibitory concentration (IC50) is more than 200 µM.

Regarding `Cc1cc(NS(=O)(=O)c2ccc(NC(=O)c3cccc4c(NNc5ccc(S(N)(=O)=O)cc5)c5ccccc5nc34)cc2)no1`, the EC50 is more than 200 µM and the IC50 turned out to be 37.2 µM.

Take `Cc1c2ccccc2nc(CSc2n[nH]c(=S)s2)[n+]1[O-]`: the EC50 was more than 200 µM and the half-maximal inhibitory concentration (IC50) is more than 200 µM.
